This is an account of results in US7482379B2, “Propenoyl hydrazides” (priority 2004, dated 2009).

The target of one test is T1, Caspase-9 (Homo sapiens, UniProt P55211).
T1 sequence (P55211 1-315 limits assumed): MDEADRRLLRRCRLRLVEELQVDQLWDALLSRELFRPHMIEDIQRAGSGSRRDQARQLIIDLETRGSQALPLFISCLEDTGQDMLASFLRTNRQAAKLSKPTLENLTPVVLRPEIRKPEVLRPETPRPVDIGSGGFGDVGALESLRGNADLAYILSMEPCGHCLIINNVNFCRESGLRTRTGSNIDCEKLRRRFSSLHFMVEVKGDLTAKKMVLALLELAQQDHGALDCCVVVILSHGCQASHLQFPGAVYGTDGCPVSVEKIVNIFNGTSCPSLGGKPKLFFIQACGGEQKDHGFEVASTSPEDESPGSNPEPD
T1 sequence (P55211 331-416 limits assumed): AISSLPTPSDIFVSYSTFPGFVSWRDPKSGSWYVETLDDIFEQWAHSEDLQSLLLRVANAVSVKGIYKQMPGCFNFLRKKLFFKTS
As to the kind of experiment: Caspase-9 progress curve inhibition assay. To be noted: for k2 Caspase-9: second-order rate constant, Ac-LEHD-AFC substrate, Hepes buffer pH 7.0 with 0.7 M sodium citrate.

For a further test, the target named is T2, Caspase-10 (Homo sapiens, UniProt Q92851).
T2 sequence (Q92851 220-415 limits assumed): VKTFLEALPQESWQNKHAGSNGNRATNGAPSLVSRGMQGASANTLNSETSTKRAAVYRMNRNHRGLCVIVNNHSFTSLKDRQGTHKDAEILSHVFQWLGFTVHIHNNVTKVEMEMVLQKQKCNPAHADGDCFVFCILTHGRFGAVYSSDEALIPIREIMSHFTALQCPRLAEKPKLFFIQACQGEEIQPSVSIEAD
T2 sequence (Q92851 416-521 limits assumed): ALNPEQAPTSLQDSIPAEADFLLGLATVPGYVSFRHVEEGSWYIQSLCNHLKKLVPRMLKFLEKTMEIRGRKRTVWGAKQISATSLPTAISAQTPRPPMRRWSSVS
As to the kind of experiment: Caspase-10 progress curve inhibition assay. As to conditions: for k2 Caspase-10: second-order rate constant, Ac-DEVD-AMC substrate, Hepes/PEG buffer pH 7.0.

The target in another test is T3, Caspase-3 (Homo sapiens, UniProt P42574).
T3 sequence (P42574 29-175 limits assumed): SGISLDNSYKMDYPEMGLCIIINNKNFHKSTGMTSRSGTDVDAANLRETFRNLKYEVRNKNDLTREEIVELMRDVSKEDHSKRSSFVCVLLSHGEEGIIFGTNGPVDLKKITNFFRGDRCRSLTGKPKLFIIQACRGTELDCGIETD
T3 sequence (P42574 176-277 limits assumed): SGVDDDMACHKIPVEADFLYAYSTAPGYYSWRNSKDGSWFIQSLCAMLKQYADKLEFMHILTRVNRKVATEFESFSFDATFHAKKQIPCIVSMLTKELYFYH
As to the kind of experiment: Caspase-3 progress curve inhibition assay. As to conditions: for k2 Caspase-3: second-order rate constant, Ac-DEVD-AMC substrate, Pipes buffer pH 7.2.

The next test deals with Caspase-8 (Homo sapiens, UniProt Q14790). As to the kind of experiment: Caspase-8 progress curve inhibition assay. To be noted: for k2 Caspase-8: second-order rate constant, Ac-DEVD-AMC substrate, Pipes buffer pH 7.2.
Sequence of Caspase-8 (Q14790 217-374 limits assumed): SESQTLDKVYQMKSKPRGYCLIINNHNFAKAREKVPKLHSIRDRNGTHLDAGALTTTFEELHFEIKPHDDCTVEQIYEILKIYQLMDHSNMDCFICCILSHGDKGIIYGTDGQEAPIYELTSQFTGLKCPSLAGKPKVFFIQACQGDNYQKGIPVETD
Sequence of Caspase-8 (Q14790 385-479 limits assumed): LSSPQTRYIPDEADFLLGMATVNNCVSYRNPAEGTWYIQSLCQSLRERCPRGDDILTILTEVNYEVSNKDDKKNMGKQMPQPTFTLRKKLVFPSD
For a further test, the target named is T4, Caspase-7 (Homo sapiens, UniProt P55210).
T4 sequence (P55210 24-198 limits assumed): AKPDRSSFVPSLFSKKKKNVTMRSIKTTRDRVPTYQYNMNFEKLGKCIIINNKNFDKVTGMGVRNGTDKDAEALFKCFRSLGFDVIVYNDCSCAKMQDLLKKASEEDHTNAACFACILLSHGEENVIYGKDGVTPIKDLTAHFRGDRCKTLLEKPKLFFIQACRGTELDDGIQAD
T4 sequence (P55210 207-303 limits assumed): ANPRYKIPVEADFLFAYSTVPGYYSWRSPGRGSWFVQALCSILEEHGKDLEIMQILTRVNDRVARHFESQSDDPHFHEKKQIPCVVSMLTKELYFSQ
As to the kind of experiment: Caspase-7 progress curve inhibition assay. To be noted: for k2 Caspase-7: second-order rate constant, Ac-DEVD-AMC substrate, Pipes buffer pH 7.2.

For another test, the target named is T5, Caspase-2 (Homo sapiens, UniProt P42575).
T5 sequence (P42575 170-333 limits assumed): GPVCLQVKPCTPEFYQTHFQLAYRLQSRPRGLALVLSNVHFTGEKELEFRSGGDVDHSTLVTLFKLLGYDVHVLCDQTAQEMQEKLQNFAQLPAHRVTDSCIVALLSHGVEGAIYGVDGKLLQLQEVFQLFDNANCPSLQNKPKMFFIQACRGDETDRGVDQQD
T5 sequence (P42575 348-452 limits assumed): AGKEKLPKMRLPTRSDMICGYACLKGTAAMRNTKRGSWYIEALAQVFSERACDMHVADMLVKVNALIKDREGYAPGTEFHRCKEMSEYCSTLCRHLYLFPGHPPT
The test is described as follows: Caspase-2 progress curve inhibition assay. To be noted: second-order rate constant; Cbz-VDVAD-AFC substrate; Pipes buffer pH 7.2.

For another test, the target named is T6, Caspase-6 (Homo sapiens, UniProt P55212).
T6 sequence (P55212 24-179 limits assumed): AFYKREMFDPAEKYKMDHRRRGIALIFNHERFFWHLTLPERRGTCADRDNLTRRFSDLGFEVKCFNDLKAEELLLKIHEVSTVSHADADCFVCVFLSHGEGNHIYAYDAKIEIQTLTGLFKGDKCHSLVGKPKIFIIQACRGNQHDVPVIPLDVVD
T6 sequence (P55212 194-293 limits assumed): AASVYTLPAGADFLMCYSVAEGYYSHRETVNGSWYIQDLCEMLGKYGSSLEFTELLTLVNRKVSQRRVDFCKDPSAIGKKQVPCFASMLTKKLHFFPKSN
The test is described as follows: Caspase-6 progress curve inhibition assay. To be noted: for k2 Caspase-6: second-order rate constant, Ac-DEVD-AMC substrate, Pipes buffer pH 7.2.

Peptide text beside a SMILES is read from it. * marks the point of attachment. AFC = O=c1cc(C(F)(F)F)c2ccc(N*)cc2o1

Description for Caspase-10: Caspase-2, -3, -6, -7, -8, -9 and -10. Caspases-2, -3, -6, -7, -8, -9 and -10 were expressed in E. coli and purified in Guy Salvesen's laboratory at the Burnham Institute, La Jolla, Calif., according to the methods known in the art. Inhibition rates were determined by the progress curve method known in the art. This method is suitable for measuring irreversible inhibition rates with fast inhibitors, where the inhibitor, the substrate and the enzyme are incubated together and the rate of substrate hydrolysis is measured continuously. The rate of substrate hydrolysis in the presence of the inhibitor was monitored for 20 minutes. The progress curve of inhibition, where the product formation approaches an asymptote is described in the equation ln([P∞]−[P])=ln[P∞]−A[I]t where [P] and [P∞] are the product concentrations at t and t=∞ respectively, A is the apparent rate constant in the presence of the substrate. The apparent rate constants were determined from the slopes of plots of ln ([P∞]−[P]) versus time (t) in seconds as previously described, where A=slope/[I].
(§1) For competitive and irreversible inhibition, the apparent rate constant is converted to the second order rate constant k2 by taking into consideration the effect of the substrate concentration on the apparent rate constant. The second order rate constant is described as in the equation: k2=A*(1+[S]/KM)
Assay buffer is a 1:1 mixture of buffer (200 mM Hepes, 0.2% (w/v) CHAPS, PEG 20% (w/v)) and 20 mM DTT solution in H2O at pH 7.0). The enzyme was pre-activated for 10 min at 25° C. in the assay buffer.
Description for Caspase-2: Inhibition rates were determined by the progress curve method known in the art. This method is suitable for measuring irreversible inhibition rates with fast inhibitors, where the inhibitor, the substrate and the enzyme are incubated together and the rate of substrate hydrolysis is measured continuously. The rate of substrate hydrolysis in the presence of the inhibitor was monitored for 20 minutes. The progress curve of inhibition, where the product formation approaches an asymptote is described in the equation ln([P∞]−[P])=ln[P∞]−A[I]t where [P] and [P∞] are the product concentrations at t and t=∞ respectively, A is the apparent rate constant in the presence of the substrate. The apparent rate constants were determined from the slopes of plots of ln ([P∞]−[P]) versus time (t) in seconds as previously described, where A=slope/[I].
as §1
(§2) The concentration of the caspase-3 stock solution was 2 nM in the assay buffer. Assay buffer is a 1:1 mixture of caspase buffer (40 mM Pipes, 200 mM NaCl, 0.2% (w/v) CHAPS, sucrose 20% (w/v)) and 20 mM DTT solution in H2O at pH 7.2. The concentration of the substrate stock solution was 2 mM in DMSO. The enzyme was pre-activated for 10 min at 37° C. in the assay buffer. […] 50 μL of 2 nM enzyme stock solution (final concentration: 1 nM) was added to the mixture after 1 min and reading started immediately for 20 min at 37° C. Inhibition experiments were repeated in duplicate and standard deviations determined.
The inhibitor stock solution concentrations varied from 5×10^−3 M to 1×10^−4 M in DMSO.
Description for Caspase-3: Caspase-2, -3, -6, -7, -8, -9 and -10. […] Inhibition rates were determined by the progress curve method known in the art. This method is suitable for measuring irreversible inhibition rates with fast inhibitors, where the inhibitor, the substrate and the enzyme are incubated together and the rate of substrate hydrolysis is measured continuously. The rate of substrate hydrolysis in the presence of the inhibitor was monitored for 20 minutes. The progress curve of inhibition, where the product formation approaches an asymptote is described in the equation ln([P∞]−[P])=ln[P∞]−A[I]t where [P] and [P∞] are the product concentrations at t and t=∞ respectively, A is the apparent rate constant in the presence of the substrate. The apparent rate constants were determined from the slopes of plots of ln ([P∞]−[P]) versus time (t) in seconds as previously described, where A=slope/[I].
as §1, §2

Turning to `CC(C)[C@H](NC(=O)OCc1ccccc1)C(=O)NN(CC(=O)O)C(=O)/C=C/c1ccc(Cl)cc1` (stereo in doubt) [Cbz-Val-AAsp-CH═CH-4-Cl—Ph, N^2—(N-Benzyloxycarbonylvalyl)-N^1-carboxymethyl-N^1-trans-(3-(4-chlorophenyl)propenoyl)hydrazine], the “k2 Caspase-9” value at Caspase-9 was 19 M⁻¹ s⁻¹.

Take `CCOC(=O)/C=C/C(=O)N(CC(=O)O)NC(=O)[C@@H](NC(=O)[C@H](CCC(=O)O)NC(=O)[C@@H](NC(=O)OCc1ccccc1)[C@@H](C)CC)[C@@H](C)O` (relative stereo) [Cbz-Ile-Glu-Thr-AAsp-CH═CH—COOEt, N^2—(N-Benzyloxycarbonylisoleucylglutamylthreonyl)-N^1-carboxymethyl-N^1-trans-(3-ethoxycarbonylpropenoyl)hydrazine]: the “k2 Caspase-10” value on Caspase-10 is given as 6,900 M^−1s^−1. On Caspase-3, the “k2 Caspase-3” value was 6,740 M^−1s^−1. For the same molecule, at Caspase-8, the “k2 Caspase-8” value is on record as 56,500 M^−1s^−1. Further, the “k2 Caspase-7” value at Caspase-7 amounted to 530 M⁻¹ s⁻¹. Further, on Caspase-2, the “k2 Caspase-2” value stood at 300 M⁻¹ s⁻¹. Besides, on Caspase-6, the “k2 Caspase-6” value is recorded as 88,700 M^−1s^−1.

As for `CCOC(=O)/C=C/C(=O)N(CC(=O)O)NC(=O)[C@@H](NC(=O)[C@H](CCC(=O)O)NC(=O)OCc1ccccc1)C(C)C` (relative stereo) [Cbz-Glu-Val-AAsp-CH═CH—COOEt, N^2—(N-Benzyloxycarbonylglutamylvalyl)-N^1-carboxymethyl-N^1-trans-(3-ethoxycarbonylpropenoyl)hydrazine], the “k2 Caspase-10” value at Caspase-10 is given as 8,940 M^−1s^−1. On Caspase-3, the “k2 Caspase-3” value was 38,600 M^−1s^−1. The “k2 Caspase-7” value at Caspase-7 was 52,400 M^−1s^−1. Further, the “k2 Caspase-2” value at Caspase-2 came to 90 M⁻¹ s⁻¹. For the same molecule, the “k2 Caspase-6” value on Caspase-6 was 3,540 M^−1s^−1.

For the molecule `CC(C)C[C@H](NC(=O)OCc1ccccc1)C(=O)N[C@@H](CCC(=O)O)C(=O)N[C@H](C(=O)NN(CC(=O)O)C(=O)/C=C/C(=O)OCc1ccccc1)[C@@H](C)O` (relative stereo) [Cbz-Leu-Glu-Thr-AAsp-CH═CH—COOCH2Ph, N^1-trans-(3-Benzyloxycarbonylpropenoyl)-N^2—(N-benzyloxycarbonylleucylglutamylthreonyl)-N^1-carboxymethylhydrazine], the “k2 Caspase-10” value on Caspase-10 is 18,900 M^−1s^−1. In addition, the “k2 Caspase-3” value on Caspase-3 was 4,600 M^−1s^−1. The “k2 Caspase-8” value on Caspase-8 was 98,400 M^−1s^−1. The “k2 Caspase-7” value at Caspase-7 was 1,570 M^−1s^−1. At Caspase-2, the “k2 Caspase-2” value stood at 480 M⁻¹ s⁻¹. Besides, the “k2 Caspase-6” value on Caspase-6 is on record as 47,600 M^−1s^−1.

As for `CC[C@H](C)[C@H](NC(=O)OCc1ccccc1)C(=O)N[C@@H](CCC(=O)O)C(=O)N[C@H](C(=O)NN(CC(=O)O)C(=O)/C=C/C(=O)OCc1ccccc1)[C@@H](C)O` (relative stereo) [Cbz-Ile-Glu-Thr-AAsp-CH═CH—COOCH2Ph, N^1-trans-(3-Benzyloxycarbonylpropenoyl)-N^2—(N-benzyloxycarbonylisoleucylglutamylthreonyl)-N^1-carboxylmethylhydrazine], at Caspase-10, the “k2 Caspase-10” value was 15,200 M^−1s^−1. Besides, on Caspase-3, the “k2 Caspase-3” value is reported as 2,300 M^−1s^−1. The “k2 Caspase-8” value at Caspase-8 was 148,400 M^−1s^−1. Further, the “k2 Caspase-7” value on Caspase-7 worked out at 660 M⁻¹ s⁻¹. Moreover, the “k2 Caspase-2” value on Caspase-2 was found to be 110 M⁻¹ s⁻¹. For the same molecule, the “k2 Caspase-6” value on Caspase-6 was 23,350 M^−1s^−1.

With `CC(C)[C@H](NC(=O)[C@H](CCC(=O)O)NC(=O)[C@H](CC(=O)O)NC(=O)OCc1ccccc1)C(=O)NN(CC(=O)O)C(=O)/C=C/C(=O)c1ccccc1` (relative stereo) [Cbz-Asp-Glu-Val-AAsp-CH═CH—COPh, N^2—(N-Benzyloxycarbonylaspartylglutamylvalyl)-N^1-trans-(3-benzoylpropenoyl)-N^1-carboxymethylhydrazine], the “k2 Caspase-10” value on Caspase-10 was determined as 930 M⁻¹ s⁻¹. In addition, the “k2 Caspase-3” value at Caspase-3 is given as 122,000 M^−1s^−1. The “k2 Caspase-8” value at Caspase-8 is given as 9,720 M^−1s^−1. Moreover, the “k2 Caspase-7” value at Caspase-7 is 10,800 M^−1s^−1. Further, the “k2 Caspase-2” value on Caspase-2 is 165 M⁻¹ s⁻¹. The “k2 Caspase-6” value at Caspase-6 is on record as 1,800 M^−1s^−1.

Regarding `CC(C)[C@H](NC(=O)OCc1ccccc1)C(=O)NN(CC(=O)O)C(=O)/C=C\Cl` (stereo in doubt) [Cbz-Val-AAsp-CH═CH—Cl, N^2—(N-Benzyloxycarbonylvalyl)-N^1-carboxymethyl-N^1-cis-(3-chloropropenoyl)hydrazine], the “k2 Caspase-9” value at Caspase-9 amounted to 15 M⁻¹ s⁻¹.

With `CCOC(=O)/C=C\C(=O)N(CC(=O)O)NC(=O)[C@@H](NC(=O)[C@H](CCC(=O)O)NC(=O)[C@H](CC(=O)O)NC(=O)OCc1ccccc1)C(C)C` (relative stereo) [Cbz-Asp-Glu-Val-AAsp-CH═CH—COOEt (cis), N^2—(N-Benzyloxycarbonylaspartylglutamylvalyl)-N^1-carboxylmethyl-N^1-cis-(3-ethoxycarbonylpropenoyl)hydrazine], the “k2 Caspase-10” value on Caspase-10 is on record as 13,500 M^−1s^−1. The “k2 Caspase-3” value on Caspase-3 is 1,060,000 M^−1s^−1. For the same molecule, the “k2 Caspase-8” value on Caspase-8 was 181,000 M^−1s^−1. The “k2 Caspase-7” value at Caspase-7 is reported as 139,000 M^−1s^−1. The “k2 Caspase-2” value on Caspase-2 is 26,200 ± ^ M^−1s^−1. Besides, the “k2 Caspase-6” value on Caspase-6 was 11,000 M^−1s^−1.

Regarding `CC(C)[C@H](NC(=O)[C@H](CCC(=O)O)NC(=O)[C@H](CC(=O)O)NC(=O)OCc1ccccc1)C(=O)NN(CC(=O)O)C(=O)/C=C/C(=O)OCc1ccccc1` (relative stereo) [Cbz-Asp-Glu-Val-AAsp-CH═CH—COOCH2Ph, N^1-trans-(3-Benzyloxycarbonylpropenoyl)-N^2—(N-benzyloxycarbonylaspartylglutamylvalyl)-N^1-carboxymethylhydrazine], the “k2 Caspase-10” value at Caspase-10 is recorded as 28,300 M^−1s^−1. For the same molecule, at Caspase-3, the “k2 Caspase-3” value is 1,700,000 M^−1s^−1. Besides, the “k2 Caspase-8” value on Caspase-8 is reported as 121,000 M^−1s^−1. In addition, the “k2 Caspase-7” value on Caspase-7 is 114,000 M^−1s^−1. Besides, at Caspase-6, the “k2 Caspase-6” value was 8,470 M^−1s^−1.

For `CC(=O)N[C@@H](CC(C)C)C(=O)N[C@@H](CCC(=O)O)C(=O)N[C@@H](Cc1cnc[nH]1)C(=O)N[C@@H](CC(=O)O)C(=O)Nc1ccc2c(C(F)(F)F)cc(=O)oc2c1` [Ac-LEHD-AFC, reference compound] (Ac-LEHD-{AFC}), the Km on Caspase-9 (read-out: KM with caspase-9, substrate Ac-LEHD-AFC) came to 114 µM.

Take `CC(=O)N[C@@H](CC(=O)O)C(=O)N[C@@H](CCC(=O)O)C(=O)N[C@H](C(=O)N[C@@H](CC(=O)O)C(=O)Nc1ccc2c(C)cc(=O)oc2c1)C(C)C` [Ac-DEVD-AMC, reference compound]: the Km at Caspase-10 (read-out: KM with caspase-10, substrate Ac-DEVD-AMC) stood at 20.2 µM; at Caspase-3 (read-out: KM with caspase-3, substrate Ac-DEVD-AMC), 9.7 µM; at Caspase-8 (read-out: KM with caspase-8, substrate Ac-DEVD-AMC), 6.79 µM; on Caspase-7 (read-out: KM with caspase-7, substrate Ac-DEVD-AMC), 23 µM; on Caspase-6 (read-out: KM with caspase-6, substrate Ac-DEVD-AMC), 236 µM.

The term Km denotes the substrate concentration at which the rate is half of its maximum.
